In patent US5089516A, “1-phenyl-3,5-pyrazolidinedione hydroxystyrene compounds which have tyrosine kinase inhibiting activity” (Kanegafuchi Kagaku Kogyo Kabushiki Kaisha, priority 1987, dated 1992):

Key:
[1] = target: T1, epidermal growth factor receptor-tyrosine kinase complex (Homo sapiens, UniProt P00533); experiment: Tyrosine kinase inhibiting activity (A-431 membrane preparation, EGF-stimulated); type: biochemical; conditions: read-out: Tyrosine kinase inhibition rate; for inhibition at 1 µM: 1 μM in the reaction mixture; for inhibition at 10 µM: 10 μM in the reaction mixture
T1 construct: The membrane preparation was employed in the following measurement without solubilization; endogenous in cells; host or cells: A-431 (ATCC CRL1555), membrane preparation, not solubilized
Summary of the method: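 Unsolubilized A-431 membranes (10 μg protein) in 20 mM HEPES pH 7.4 with 1 mM MnCl2 were preincubated with compound (DMSO) 5 min at 0° C, stimulated with 100 ng EGF 15 min, then phosphorylated with [γ-32P]ATP 15 min at 0° C. TCA-precipitated radioactivity on filter counted; inhibition % calculated against no-EGF and no-compound controls.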

5-lipoxygenase = target: T2, 5-lipoxygenase (Cavia porcellus, UniProt A0A286X958); experiment: 5-Lipoxygenase inhibiting activity (5-HETE formation, cytosol of peritoneal exudate cells); type: biochemical, Hartley guinea pigs; conditions: read-out: Inhibition rate (5-lipoxygenase); for inhibition at 10 µM: 10 μM in the reaction mixture; for inhibition at 1 µM: 1 μM in the reaction mixture
T2 construct: The cytosol fraction was used as an enzyme solution; from tissue; host or cells: peritoneal exudate cells of casein-injected Hartley guinea pigs, 105,000×g cytosol
T2 sequence (A0A286X958 1-674): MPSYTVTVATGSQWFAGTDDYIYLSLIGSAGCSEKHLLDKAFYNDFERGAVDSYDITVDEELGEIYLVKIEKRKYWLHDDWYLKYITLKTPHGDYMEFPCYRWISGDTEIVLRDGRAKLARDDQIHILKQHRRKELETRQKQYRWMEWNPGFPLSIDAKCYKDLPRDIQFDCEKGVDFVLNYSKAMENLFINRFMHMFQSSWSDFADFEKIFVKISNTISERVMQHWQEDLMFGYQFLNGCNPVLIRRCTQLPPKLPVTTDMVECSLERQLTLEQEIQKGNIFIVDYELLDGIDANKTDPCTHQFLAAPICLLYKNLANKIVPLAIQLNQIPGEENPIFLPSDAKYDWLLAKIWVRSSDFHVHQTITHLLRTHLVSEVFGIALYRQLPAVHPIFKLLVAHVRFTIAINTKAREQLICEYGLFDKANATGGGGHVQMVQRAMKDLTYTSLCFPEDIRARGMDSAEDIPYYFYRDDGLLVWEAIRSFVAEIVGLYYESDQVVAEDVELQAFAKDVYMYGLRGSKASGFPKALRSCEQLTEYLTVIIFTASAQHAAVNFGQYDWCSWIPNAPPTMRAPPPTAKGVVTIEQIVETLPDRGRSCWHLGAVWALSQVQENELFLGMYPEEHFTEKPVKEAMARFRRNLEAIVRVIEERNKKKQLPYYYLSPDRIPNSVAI
Summary of the method: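 Enzyme source: cytosol (105,000×g supernatant) of casein-elicited guinea pig peritoneal exudate cells, preincubated 5 min at 30 °C with compound (2% ethanol final), 1 mM CaCl2, 1 mM GSH, 2 mM ATP, then 5 min with 20 μM [1-14C]arachidonic acid. 5-HETE separated by TLC, counted by scintillation; % inhibition versus ethanol control.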

T1 sequence (P00533 25-1210, one chain of several): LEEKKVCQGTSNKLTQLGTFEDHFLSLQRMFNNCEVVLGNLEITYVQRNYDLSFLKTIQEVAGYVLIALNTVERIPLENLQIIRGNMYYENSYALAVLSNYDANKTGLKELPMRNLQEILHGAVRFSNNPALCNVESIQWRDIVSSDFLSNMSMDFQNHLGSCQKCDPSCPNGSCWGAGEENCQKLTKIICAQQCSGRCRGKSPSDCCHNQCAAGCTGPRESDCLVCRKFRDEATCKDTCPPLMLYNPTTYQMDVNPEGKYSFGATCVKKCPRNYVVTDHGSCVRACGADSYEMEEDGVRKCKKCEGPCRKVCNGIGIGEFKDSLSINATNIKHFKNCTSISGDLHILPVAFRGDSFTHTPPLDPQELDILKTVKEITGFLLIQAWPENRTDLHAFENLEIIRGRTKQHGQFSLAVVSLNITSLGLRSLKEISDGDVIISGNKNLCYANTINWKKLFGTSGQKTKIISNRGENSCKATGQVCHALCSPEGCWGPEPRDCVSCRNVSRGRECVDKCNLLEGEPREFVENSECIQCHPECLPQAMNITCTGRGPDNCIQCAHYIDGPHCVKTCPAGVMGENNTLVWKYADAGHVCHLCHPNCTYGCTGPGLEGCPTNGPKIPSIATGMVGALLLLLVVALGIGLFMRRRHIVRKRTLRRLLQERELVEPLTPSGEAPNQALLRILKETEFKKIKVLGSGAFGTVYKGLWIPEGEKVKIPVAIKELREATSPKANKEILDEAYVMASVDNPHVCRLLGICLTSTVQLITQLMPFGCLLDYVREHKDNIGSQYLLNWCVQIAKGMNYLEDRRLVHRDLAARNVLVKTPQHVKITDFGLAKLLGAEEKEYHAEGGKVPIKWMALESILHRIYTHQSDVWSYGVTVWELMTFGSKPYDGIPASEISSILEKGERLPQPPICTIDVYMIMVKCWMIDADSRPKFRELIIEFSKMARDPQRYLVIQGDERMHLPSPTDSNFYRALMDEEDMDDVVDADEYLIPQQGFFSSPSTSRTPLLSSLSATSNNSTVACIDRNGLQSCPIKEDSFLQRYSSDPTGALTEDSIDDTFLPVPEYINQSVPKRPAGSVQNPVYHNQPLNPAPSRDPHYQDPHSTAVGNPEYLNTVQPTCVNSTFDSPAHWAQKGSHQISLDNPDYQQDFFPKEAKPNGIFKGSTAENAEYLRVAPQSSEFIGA

Row | SMILES | inhibition at 1 µM [1] [%] | inhibition at 10 µM (5-lipoxygenase) [%] | inhibition at 10 µM [1] [%] | inhibition at 1 µM (5-lipoxygenase) [%]
1 | O=C1NC(=S)SC1=Cc1cc(Cc2ccccc2)c(O)c(Cc2ccccc2)c1 [Compound 2] | 20 | 78 | – | –
2 | O=C1NC(=S)SC1=Cc1cc(O)c(O)c(CSc2ccccc2)c1 [Compound 7] | – | – | 59 | 88
3 | O=C1NC(=S)SC1=Cc1cc(CSc2ccccc2)c(O)c(OCc2ccccc2)c1 [Compound 8] | – | – | 69 | 61
4 | CCCCOc1cc(C=C2SC(=S)NC2=O)cc(CSc2ccccc2)c1O [Compound 9] | – | – | 50 | 91
5 | CCCCOc1cc(C=C2SC(=S)NC2=O)cc(Cc2ccccc2)c1O [Compound 10] | 40 | – | – | 23
6 | O=C1Nc2ccccc2C1=Cc1cc(O)c(O)c(CSc2ccccc2)c1 [Compound 11] | – | – | 52 | 87
7 | O=C1NN(c2ccccc2)C(=O)C1=Cc1cc(Cc2ccccc2)c(O)c(Cc2ccccc2)c1 [Compound 20] | 46 | 83 | – | –
8 | O=C1NN(c2ccccc2)C(=O)C1=Cc1cc(O)c(O)c(Cc2ccccc2)c1 [Compound 24] | 37 | – | – | 48
9 | O=C1N=C(NCc2ccccc2)SC1=Cc1cc(Cc2ccccc2)c(O)c(Cc2ccccc2)c1 [Compound 26] | – | – | 62 | 84
10 | O=C1N=C(NCc2cccs2)SC1=Cc1cc(CSc2ccccc2)c(O)c(OCc2ccccc2)c1 [Compound 31] | – | – | 41 | 49
11 | CC(C)c1cc(C=C2SC(NCc3ccccc3)=NC2=O)cc(C(C)C)c1O [Compound 33] | – | 82 | 69 | –
12 | CC(C)c1cc(C=C2SC(NCc3ccc(F)cc3)=NC2=O)cc(C(C)C)c1O [Compound 35] | 70 | 89 | – | –
13 | CC(C)c1cc(C=C2SC(NCc3ccc(Cl)c(Cl)c3)=NC2=O)cc(C(C)C)c1O [Compound 37] | – | 89 | 83 | –
14 | Cc1ccc(CNC2=NC(=O)C(=Cc3cc(C(C)C)c(O)c(C(C)C)c3)S2)cc1 [Compound 39] | – | 87 | 43 | –
15 | CC(C)c1cc(C=C2SC(NCc3ccc(S(N)(=O)=O)cc3)=NC2=O)cc(C(C)C)c1O [Compound 41] | – | 89 | 70 | –
16 | CC(C)c1cc(C=C2SC(NCc3ccc(N)cc3)=NC2=O)cc(C(C)C)c1O [Compound 42] | 85 | 88 | – | –
